Experimental data reported in patent US20130252890A1, “6,7-DIHYDRO-5H-BENZO[7]ANNULENE DERIVATIVES, PROCESS FOR PREPARATION THEREOF, PHARMACEUTICAL PREPARATIONS COMPRISING THEM, AND THE USE THEREOF FOR PRODUCTION OF MEDICAMENTS” (BAYER INTELLECTUAL PROPERTY GMBH, priority 2010, published 2013).

target: T1, oestrogen receptor (ER) (Homo sapiens, UniProt P03372); assay: Anti-oestrogenic action in MVLN cells (inhibition of estradiol-induced luciferase); type: cell-based; conditions: inhibition of estradiol-induced luciferase signal, value of Ex. 44 is a mean value, read-out: Antioestrogenic action in vitro: MVLN transactivation antagonism IC50
T1 construct: These MVLN cells express, along with the functional oestrogen receptor (ER), a reporter construct; endogenous in cells; host or cells: MVLN cells (MCF7 derivative carrying a luciferase reporter construct)
T1 sequence (P03372 1-595): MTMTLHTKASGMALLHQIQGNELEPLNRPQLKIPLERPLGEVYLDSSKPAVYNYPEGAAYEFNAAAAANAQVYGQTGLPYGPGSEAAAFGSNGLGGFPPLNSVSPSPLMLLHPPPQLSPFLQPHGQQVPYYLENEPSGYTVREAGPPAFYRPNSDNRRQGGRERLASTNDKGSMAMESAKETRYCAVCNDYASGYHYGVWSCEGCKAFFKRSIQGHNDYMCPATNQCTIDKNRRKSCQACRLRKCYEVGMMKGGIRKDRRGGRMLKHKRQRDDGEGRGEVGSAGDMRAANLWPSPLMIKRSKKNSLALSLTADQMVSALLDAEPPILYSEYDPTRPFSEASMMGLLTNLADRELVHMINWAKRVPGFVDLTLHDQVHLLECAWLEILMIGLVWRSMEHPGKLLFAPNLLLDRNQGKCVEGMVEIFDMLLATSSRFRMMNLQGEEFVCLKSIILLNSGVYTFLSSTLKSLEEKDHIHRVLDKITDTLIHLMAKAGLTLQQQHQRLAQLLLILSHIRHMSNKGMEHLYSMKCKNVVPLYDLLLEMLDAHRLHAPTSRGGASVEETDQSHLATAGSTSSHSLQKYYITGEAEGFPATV
Excerpt: The anti-oestrogenic action of the claimed pharmacological compounds was investigated in so-called MVLN cells in vitro. MVLN cells are derivatives of the hormone-responsive MCF7 breast cancer cells known by a person skilled in the art. These MVLN cells express, along with the functional oestrogen receptor (ER), a reporter construct, which under ER-activation expresses luciferase. Determination of the activity of the induced luciferase permits a direct conclusion on the oestrogen properties of substances. To investigate the anti-oestrogenic properties of the pharmacological compounds, they were investigated in the presence of oestrogen for their potential for inhibiting the luciferase signal induced by estradiol. The claimed pharmacological test substances were investigated in MVLN cells for their anti-oestrogenic potential, as described (see Table 2).

Question: For CCN(CCCCCCC1=C(c2ccc(F)c(F)c2)CCCc2cc(O)ccc21)CCCS(=O)(=O)CCC(F)(F)F [Example 30, 8-(3,4-Difluorophenyl)-9-[6-(ethyl{3-[(3,3,3-trifluoropropyl)sulphonyl]propyl}amino)hexyl]-6,7-dihydro-5H-benzo[7]annulen-3-ol], which IC50 is on record?
Answer: The IC50 was 88 nM.

Question: With CC(C)(O)CN(CCCCCCC1=C(c2ccc(F)c(F)c2)CCCc2cc(O)ccc21)CCC[S+]([O-])CCC(F)(F)F (stereo not drawn) [Example 26, 8-(3,4-Difluorophenyl)-9-{6-[(2-hydroxy-2-methylpropyl){3-[(3,3,3-trifluoropropyl)sulphinyl]propyl}amino]hexyl}-6,7-dihydro-5H-benzo[7]annulen-3-ol] as the compound, how does the IC50 read?
Answer: Its IC50 is 28 nM.

Question: With O=S(=O)(CCCNCCCCCCC1=C(c2ccc(F)cc2)CCCc2cc(O)ccc21)CCCC(F)(F)C(F)(F)F [Example 113, 8-(4-Fluorophenyl)-9-[6-({3-[(4,4,5,5,5-pentafluoropentyl)sulphonyl]propyl}amino)hexyl]-6,7-dihydro-5H-benzo[7]annulen-3-ol] as the compound, how does the IC50 read?
Answer: The IC50 was 18 nM.

Question: How did the IC50 turn out when CN(CCCCCCC1=C(c2ccc(F)cc2)CCCc2cc(O)ccc21)CCCS(=O)(=O)C1CCC(F)(F)CC1 [Example 121, 9-{6-[{3-[(4,4-difluorocyclohexyl)sulphonyl]propyl}(methyl)amino]hexyl}-8-(4-fluorophenyl)-6,7-dihydro-5H-benzo[7]annulen-3-ol] was run?
Answer: The IC50 was 41 nM.

Question: For CN(CCCCCCC1=C(c2ccc(F)cc2F)CCCc2cc(O)ccc21)CCCCS(=O)(=O)CCC(F)(F)C(F)(F)F [Example 146, 8-(2,4-Difluorophenyl)-9-[6-(methyl{4-[(3,3,4,4,4-pentafluorobutyl)sulphonyl]-butyl}amino)hexyl]-6,7-dihydro-5H-benzo[7]annulen-3-ol], which IC50 is on record?
Answer: Its IC50 is 15 nM.

Question: Which IC50 does the source give for CN(CCCCCCC1=C(c2ccc(F)cc2F)CCCc2cc(O)ccc21)CCCS(=O)(=O)CCCC(F)(F)F [Example 134, 8-(2,4-Difluorophenyl)-9-[6-(methyl{3-[(4,4,4-trifluorobutyl)sulphonyl]propyl}amino)hexyl]-6,7-dihydro-5H-benzo[7]annulen-3-ol] here?
Answer: Its IC50 is 5 nM.

Question: How did the IC50 turn out when CN(CCCCCCC1=C(c2ccc(F)c(F)c2)CCCc2cc(O)ccc21)CCCCS(=O)(=O)CCCC(F)(F)C(F)(F)F [Example 25, 8-(3,4-Difluorophenyl)-9-[6-(methyl{4-[(4,4,5,5,5-pentafluoropentyl)sulphonyl]butyl}amino)hexyl]-6,7-dihydro-5H-benzo[7]annulen-3-ol] was run?
Answer: Its IC50 is 28 nM.

Question: O=S(=O)(CCCN(CCO)CCCCCCC1=C(c2ccc(F)cc2)CCCc2cc(O)ccc21)CCCC(F)(F)C(F)(F)F [Example 54, 8-(4-Fluorophenyl)-9-{6-[(2-hydroxyethyl){3-[(4,4,5,5,5-pentafluoropentyl)sulphonyl]propyl}amino]hexyl}-6,7-dihydro-5H-benzo[7]annulen-3-ol] was tested. Which IC50 did it give?
Answer: The IC50 was 27 nM.

Question: With CN(CCCCCCC1=C(c2cc(F)cc(F)c2)CCCc2cc(O)ccc21)CCC[S+]([O-])CCC(F)(F)F (stereo not drawn) [Example 5, 8-(3,5-Difluorophenyl)-9-[6-(methyl{3-[(3,3,3-trifluoropropyl)sulphinyl]propyl}amino)hexyl]-6,7-dihydro-5H-benzo[7]annulen-3-ol] as the compound, how does the IC50 read?
Answer: Its IC50 is 46 nM.

Question: Which IC50 does the source give for O=S(=O)(CCCN(CCCO)CCCCCCC1=C(c2ccc(F)cc2)CCCc2cc(O)ccc21)CCCC(F)(F)C(F)(F)F [Example 55, 8-(4-Fluorophenyl)-9-{6-[(3-hydroxypropyl){3-[(4,4,5,5,5-pentafluoropentyl)sulphonyl]propyl}amino]hexyl}-6,7-dihydro-5H-benzo[7]annulen-3-ol] here?
Answer: The IC50 was 22 nM.

Question: Which IC50 does the source give for CN(CCCCCCC1=C(c2ccc(F)cc2)CCCc2c1ccc(O)c2F)CCC[S+]([O-])CCC(F)(F)F (stereo not drawn) [Example 36, 4-Fluoro-8-(4-fluorophenyl)-9-[6-(methyl{3-[(3,3,3-trifluoropropyl)sulphinyl]propyl}amino)hexyl]-6,7-dihydro-5H-benzo[7]annulen-3-ol] here?
Answer: The IC50 was 35 nM.

Question: Which IC50 does the source give for C[C@H](O)CN(CCCCCCC1=C(c2ccc(F)cc2)CCCc2cc(O)ccc21)CCCCS(=O)(=O)CCCC(F)(F)F [Example 93, 8-(4-Fluorophenyl)-9-[6-([(2S)-2-hydroxypropyl]{4-[(4,4,4-trifluorobutyl)sulphonyl]butyl}amino)hexyl]-6,7-dihydro-5H-benzo[7]annulen-3-ol] here?
Answer: The IC50 was 5 nM.

Question: For O=S(=O)(CCCN(CCO)CCCCCCC1=C(c2ccc(F)cc2)CCCc2cc(O)ccc21)CCCC(F)(F)F [Example 97, 8-(4-Fluorophenyl)-9-{6-[(2-hydroxyethyl){3-[(4,4,4-trifluorobutyl)sulphonyl]propyl}amino]hexyl}-6,7-dihydro-5H-benzo[7]annulen-3-ol], which IC50 is on record?
Answer: Its IC50 is 7 nM.

Question: CN(CCCCCCC1=C(c2ccc(F)cc2F)CCCc2cc(O)ccc21)CCCS(=O)(=O)CCC(F)(F)C(F)(F)F [Example 145, 8-(2,4-Difluorophenyl)-9-[6-(methyl{3-[(3,3,4,4,4-pentafluorobutyl)sulphonyl]propyl}amino)hexyl]-6,7-dihydro-5H-benzo[7]annulen-3-ol] was tested. Which IC50 did it give?
Answer: The IC50 was 22 nM.

Question: Which IC50 does the source give for CN(CCCCCCC1=C(c2ccc(F)cc2)CCCc2c1ccc(O)c2F)CCCCS(=O)(=O)CCC(F)(F)F [Example 50, 4-Fluoro-8-(4-fluorophenyl)-9-[6-(methyl{4-[(3,3,3-trifluoropropyl)sulphonyl]butyl}amino)hexyl]-6,7-dihydro-5H-benzo[7]annulen-3-ol] here?
Answer: Its IC50 is 16 nM.

Question: Which IC50 does the source give for O=S(=O)(CCCCN(CCO)CCCCCCC1=C(c2ccc(F)cc2)CCCc2cc(O)c(F)cc21)CCCC(F)(F)F [Example 104, 2-Fluoro-8-(4-fluorophenyl)-9-{6-[(2-hydroxyethyl){4-[(4,4,4-trifluorobutyl)sulphonyl]butyl}amino]hexyl}-6,7-dihydro-5H-benzo[7]annulen-3-ol] here?
Answer: Its IC50 is 7 nM.

Question: How did the IC50 turn out when CC(C)(O)CN(CCCCCCC1=C(c2cc(F)cc(F)c2)CCCc2cc(O)ccc21)CCC[S+]([O-])CCCC(F)(F)C(F)(F)F (stereo not drawn) [Example 12, 8-(3,5-Difluorophenyl)-9-{6-[(2-hydroxy-2-methylpropyl){3-[(4,4,5,5,5-pentafluoropentyl)sulphinyl]propyl}amino]hexyl}-6,7-dihydro-5H-benzo[7]annulen-3-ol] was run?
Answer: The IC50 was 15 nM.

Question: COCCN(CCCCCCC1=C(c2cc(F)cc(F)c2)CCCc2cc(O)ccc21)CCCS(=O)(=O)CCCC(F)(F)C(F)(F)F [Example 15, 8-(3,5-Difluorophenyl)-9-{6-[(2-methoxyethyl){3-[(4,4,5,5,5-pentafluoropentyl)sulphonyl]propyl}amino]hexyl}-6,7-dihydro-5H-benzo[7]annulen-3-ol] was tested. Which IC50 did it give?
Answer: Its IC50 is 26 nM.

Question: With CN(CCCCCCC1=C(c2ccc(F)cc2)CCCc2cc(O)ccc21)CCCSCCCC(F)(F)C(F)(F)F [Example 78, 8-(4-Fluorophenyl)-9-[6-(methyl{3-[(4,4,5,5,5-pentafluoropentyl)sulphanyl]propyl}amino)hexyl]-6,7-dihydro-5H-benzo[7]annulen-3-ol] as the compound, how does the IC50 read?
Answer: Its IC50 is 31 nM.

Question: For N#CCN(CCCCCCC1=C(c2ccc(F)cc2)CCCc2cc(O)ccc21)CCCS(=O)(=O)CCCCC(F)(F)F [Example 141, ({6-[8-(4-Fluorophenyl)-3-hydroxy-6,7-dihydro-5H-benzo[7]annulen-9-yl]hexyl}{3-[(5,5,5-trifluoropentyl)sulphonyl]propyl}amino)acetonitrile], which IC50 is on record?
Answer: Its IC50 is 21 nM.

Question: Which IC50 does the source give for [2H]C([2H])([2H])N(CCCCCCC1=C(c2ccc(F)cc2F)CCCc2cc(O)ccc21)CCCS(=O)(=O)CCCCC(F)(F)F [Example 136, 8-(2,4-Difluorophenyl)-9-{6-[(^2H3)methyl{3-[(5,5,5-trifluoropentyl)sulphonyl]propyl}amino]hexyl}-6,7-dihydro-5H-benzo[7]annulen-3-ol] here?
Answer: Its IC50 is 9 nM.

Question: With CC(=O)N(CCCCCCC1=C(c2ccc(F)cc2)CCCc2cc(O)ccc21)CCCCS(=O)(=O)CCCC(F)(F)F [Example 89, N-{6-[8-(4-Fluorophenyl)-3-hydroxy-6,7-dihydro-5H-benzo[7]annulen-9-yl]hexyl}-N-{4-[(4,4,4-trifluorobutyl)sulphonyl]butyl}acetamide] as the compound, how does the IC50 read?
Answer: The IC50 was 54 nM.

Question: For CN(CCCCCCC1=C(c2ccc(F)cc2)CCCc2c1ccc(O)c2F)CCCS(=O)(=O)CCC(F)(F)C(F)(F)F [Example 34, 4-Fluoro-8-(4-fluorophenyl)-9-[6-(methyl{3-[(3,3,4,4,4-pentafluorobutyl)sulphonyl]propyl}amino)hexyl]-6,7-dihydro-5H-benzo[7]annulen-3-ol], which IC50 is on record?
Answer: The IC50 was 27 nM.

Question: Which IC50 does the source give for CN(CCCCCCC1=C(c2ccc(F)cc2F)CCCc2cc(O)ccc21)CCCCS(=O)(=O)CCC(F)(F)F [Example 131, 8-(2,4-Difluorophenyl)-9-[6-(methyl{4-[(3,3,3-trifluoropropyl)sulphonyl]butyl}amino)hexyl]-6,7-dihydro-5H-benzo[7]annulen-3-ol] here?
Answer: Its IC50 is 3 nM.
